What all share (format): cell-based
One assay concerns the target T1, human PPARα (Homo sapiens, UniProt Q07869).
T1 construct: expressed in transfected cells; host or cells: Hepa1c1c7 cells (transient transfection, Superfect)
T1 sequence (Q07869 1-468): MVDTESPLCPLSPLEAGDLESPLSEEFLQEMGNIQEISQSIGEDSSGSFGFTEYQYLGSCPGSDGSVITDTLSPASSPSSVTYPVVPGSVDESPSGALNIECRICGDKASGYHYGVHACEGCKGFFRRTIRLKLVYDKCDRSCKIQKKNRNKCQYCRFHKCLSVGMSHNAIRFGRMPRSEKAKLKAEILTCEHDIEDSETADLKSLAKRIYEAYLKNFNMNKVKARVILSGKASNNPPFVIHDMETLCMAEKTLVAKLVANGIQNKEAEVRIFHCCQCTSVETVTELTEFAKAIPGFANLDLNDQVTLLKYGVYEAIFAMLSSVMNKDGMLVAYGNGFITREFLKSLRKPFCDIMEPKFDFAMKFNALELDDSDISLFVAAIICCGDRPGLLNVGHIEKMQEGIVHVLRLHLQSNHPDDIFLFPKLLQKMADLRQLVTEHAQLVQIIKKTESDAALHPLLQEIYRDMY
Nature of the assay: Cell transactivation assay in transiently transfected Hepa1c1c7 cells, PPRE-Lac Z reporter. The conditions noted are these: concentration of 10 μM. The protocol: (§1) (B) Cell Transactivation Assays
(§2) Assays were performed by transient transfection of Hepa1c1c7 cells in which compounds of the invention were tested for their ability to activate human PPARα, δ and γ isoforms. Cells were co-transfected with either PPARa, d and g expression vectors (containing the entire ORF sequence) and a reporter construct carrying a PPRE linked Lac Z construct. Cells were transfected using Superfect and cultured in T75 flasks overnight, then plated into 96 well plates and left for 5 hours before the addition of test compound. After a further 24 hours PPAR activation was quantitated indirectly as β-Galactosidase activity by hydrolysis of chlorophenol red-β-D-galactopyranoside (CPRG), measured spectrophotometrically at 580 nm. Compounds of the invention were active in this assay.
(§3) According to their activity in transactivation assays and by comparison to the selective PPARγ agonist, BRL 49653; compounds of the invention were categorised as either having pharmacological properties consistent with: selective PPARγ agonists, partial agonists or non-selective PPAR α/γ agonists.

For the next assay, the target named is T2, human PPARγ (Homo sapiens, UniProt P37231).
T2 construct: expressed in transfected cells; host or cells: Hepa1c1c7 cells (transient transfection, Superfect)
T2 sequence (P37231 1-505): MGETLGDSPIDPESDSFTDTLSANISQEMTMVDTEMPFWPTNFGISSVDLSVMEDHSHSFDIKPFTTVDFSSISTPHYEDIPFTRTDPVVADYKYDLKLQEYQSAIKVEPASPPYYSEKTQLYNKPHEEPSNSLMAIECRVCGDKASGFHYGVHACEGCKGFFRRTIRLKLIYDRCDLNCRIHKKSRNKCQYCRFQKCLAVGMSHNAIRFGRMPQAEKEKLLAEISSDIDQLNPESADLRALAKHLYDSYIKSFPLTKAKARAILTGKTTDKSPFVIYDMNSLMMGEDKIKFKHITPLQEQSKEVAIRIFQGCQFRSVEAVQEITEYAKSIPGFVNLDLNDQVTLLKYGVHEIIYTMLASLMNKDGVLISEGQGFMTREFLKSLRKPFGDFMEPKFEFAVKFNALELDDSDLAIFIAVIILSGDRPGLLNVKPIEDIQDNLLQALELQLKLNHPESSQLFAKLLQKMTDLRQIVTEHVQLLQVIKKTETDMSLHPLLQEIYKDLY
The assay is described as above. Particulars: concentration of 10 μM. The protocol: as §1, §2, §3

Another assay deals with 3T3L1 preadipocytes. Nature of the assay: Adipocyte differentiation assay (glycerophosphate dehydrogenase activity). The conditions noted are these: concentration of 10 μM, 3T3L1 cells, day 7; positive control BRL 49653. Here is the method:
Adipocyte Differentiation Assay
3T3L1 preadipocytes were grown in DMEM containing 10% NBCS and 1 day post-confluence cells were cultured in differentiation medium (DMEM containing 5% FCS, 1 μg/ml insulin, 0.25 μM dexamethasone and 0.5 mM IBMX) in the presence or absence of compounds. BRL 49653 was used as the positive control and the medium replenished after 3 days. On day 7, cells were lysed and glycerophosphate dehydrogenase activity measured spectrophotometrically at 340 nm.

With `COc1cc(-c2nnn(Cc3ccccc3C(=O)O)n2)ccc1CN(C)C(=O)COc1ccc(Cl)cc1` [Compound 46], at human PPARα, the α transactivation stood at 25%. Further, at human PPARγ, the γ transactivation is 64%. In addition, the “activity as compared to the control (glycerophosphate dehydrogenase activity)” value in the assay with 3T3L1 preadipocytes is 79%.
